Reference: ChEMBL document CHEMBL1201862, “PubChem BioAssay data set” (2004)
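96-well plates; 48 h exposure; 5 concentrations. Endpoints by linear interpolation between flanking doses. Not reached: highest tested concentration assigned. GI50 = concentration required for 50% inhibition of growth.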 The source made the active and inactive calls. Cut-off read from the data, not from the text of the source: active = GI50 up to about 1.1 µM and inactive = higher.

How the values were obtained:
Assay in all cases: DTP human tumour cell line panel, 48 h
DLD-1 = test system: DLD-1
DMS-114 = test system: DMS-114
HOP-18 = test system: HOP-18
KM-20L2 = test system: KM-20L2
LXFL 529 = test system: LXFL 529
RXF 631 = test system: RXF 631
SNB-78 = test system: SNB-78
DMS-273 = test system: DMS-273
XF498 = test system: XF498

| Structure (SMILES) | GI50 (DLD-1) | GI50 (DMS-114) | GI50 (HOP-18) | GI50 (KM-20L2) | GI50 (LXFL 529) | GI50 (RXF 631) | GI50 (SNB-78) | GI50 (DMS-273) | GI50 (XF498) |
| --- | --- | --- | --- | --- | --- | --- | --- | --- | --- |
| O=S1(=O)CCCS(=O)(=O)C(c2ccccc2)=C1c1ccccc1 | 39.7 µM (inactive) | 42.7 µM (inactive) | 44.6 µM (inactive) | 37.2 µM (inactive) | 29.6 µM (inactive) | 84.7 µM (inactive) | > 100 µM (inactive) |  |  |
| COc1cc(C(C)O)c[n+](CCc2c[nH]c3ccccc23)c1 (configuration not stated) | > 100 µM (inactive) | > 100 µM (inactive) |  | 56.9 µM (inactive) | > 100 µM (inactive) | > 100 µM (inactive) |  | > 100 µM (inactive) | > 100 µM (inactive) |
| CC1(Br)C(=O)NC(=O)N([C@H]2C[C@H](O)[C@@H](CO)O2)C1N=[N+]=[N-] (some centres not stated) | > 100 µM (inactive) | > 91.2 µM (inactive) | > 100 µM (inactive) | > 100 µM (inactive) | > 100 µM (inactive) | > 100 µM (inactive) | > 100 µM (inactive) | > 100 µM (inactive) | > 100 µM (inactive) |
| Cn1c(=O)c(C(=O)NC(=O)OCc2ccccc2)cn(CCSCCOC(=O)NCCCCCCNC(=O)OCCSCCn2cc(C(=O)NC(=O)OCc3ccccc3)c(=O)n(C)c2=O)c1=O | > 100 µM (inactive) | 78 µM (inactive) |  | > 100 µM (inactive) | > 100 µM (inactive) | > 100 µM (inactive) | > 100 µM (inactive) | > 100 µM (inactive) | 16.9 µM (inactive) |
| CC(=O)/C(=C\c1ccccc1O)C(=O)Nc1ccccc1C | 20.1 µM (inactive) | 24.3 µM (inactive) | 40.2 µM (inactive) |  | 22.3 µM (inactive) |  | 23.4 µM (inactive) |  | 13.9 µM (inactive) |
| CN1CC[C@]2(C)c3c(O)cccc3CC3CCCC1C32C (some centres not stated) | > 100 µM (inactive) | > 100 µM (inactive) | 54.1 µM (inactive) | > 100 µM (inactive) | > 100 µM (inactive) | > 100 µM (inactive) | > 100 µM (inactive) |  | 59.6 µM (inactive) |
| O=P1(N(CCCl)CCCl)NCCCO1 (configuration not stated) [CYCLOPHOSPHAMIDE ANHYDROUS] | > 250 µM (inactive) | > 250 µM (inactive) | 121 µM (inactive) | > 250 µM (inactive) | > 250 µM (inactive) | > 250 µM (inactive) | > 209 µM (inactive) | > 246 µM (inactive) | 177 µM (inactive) |
| COc1cc(/C=C(\NC(=O)c2ccccc2)c2nc3ccc4c(c3[nH]2)C(=O)c2ccccc2C4=O)cc(OC)c1OC | 7.11 µM (inactive) | 32.4 µM (inactive) |  | > 100 µM (inactive) | 49 µM (inactive) | 58.7 µM (inactive) | 76.7 µM (inactive) | 40.7 µM (inactive) | > 100 µM (inactive) |
| O=[PH](O)c1cccnc1 | > 100 µM (inactive) | > 100 µM (inactive) |  | > 100 µM (inactive) | > 100 µM (inactive) | > 100 µM (inactive) | > 100 µM (inactive) | > 100 µM (inactive) | > 100 µM (inactive) |
| O=C(NO)c1ccc([N+](=O)[O-])cc1 | 51.3 µM (inactive) | 30.7 µM (inactive) |  | 62.2 µM (inactive) | 25.1 µM (inactive) |  |  | 43.8 µM (inactive) | 73.1 µM (inactive) |
| COc1ccc(/C=C2\C(=O)N(C(=O)c3ccc(NC(C)=O)cc3)N=C2C)cc1 | > 10 µM (inactive) | > 100 µM (inactive) | > 100 µM (inactive) |  |  |  | > 100 µM (inactive) | > 100 µM (inactive) | > 100 µM (inactive) |
| Cn1nc(-c2ccccc2)c2c(/C=C/c3ccc(Cl)cc3)onc2c1=O | 46 µM (inactive) | > 100 µM (inactive) | 9.84 µM (inactive) | 19.1 µM (inactive) | 39.9 µM (inactive) | > 100 µM (inactive) |  | > 100 µM (inactive) | 10.5 µM (inactive) |
| COC(=O)C12OCC34C(CC5C(C)C6=CC(=O)OC6=CC5(C)C3C(O)C1O)OC(=O)C(OC(C)=O)C24 (configuration not stated) | 14.6 µM (inactive) | 12.3 µM (inactive) | 14.2 µM (inactive) | 17 µM (inactive) | 14.6 µM (inactive) | 16.8 µM (inactive) | 11.6 µM (inactive) | 14.4 µM (inactive) | 12.2 µM (inactive) |
| C/C(=N\NC(=O)CC(=O)N(C(=O)c1ccc(Cl)cc1)c1ccc(C)cc1)c1ccccc1O | 74.6 µM (inactive) | 97.1 µM (inactive) |  | 18 µM (inactive) | > 100 µM (inactive) | > 100 µM (inactive) | 57.3 µM (inactive) | 31.7 µM (inactive) | > 100 µM (inactive) |
| CC1=NN(C(=O)Cc2ccccc2)C(=O)/C1=C\c1cccc(O)c1 | > 100 µM (inactive) | > 100 µM (inactive) | > 100 µM (inactive) |  |  |  | > 100 µM (inactive) | > 100 µM (inactive) | > 100 µM (inactive) |
| CCOCC(=O)N[C@H]1CCc2cc(OC)c(OC)c(OC)c2-c2ccc(SC)c(=O)cc21 | < 0.01 µM (active) | < 0.01 µM (active) | > 75.3 µM (inactive) | < 0.01 µM (active) | < 0.01 µM (active) | < 0.01 µM (active) | < 0.01 µM (active) | < 0.01 µM (active) | < 0.0224 µM (active) |
| CN(C)Cc1[nH]c2ccccc2c1C(=O)c1ccccc1 | > 100 µM (inactive) |  |  | 64.9 µM (inactive) | > 100 µM (inactive) |  |  | > 100 µM (inactive) | 97.9 µM (inactive) |
